# Measurements from the supplement of paper PMC10307832.
# Tests used:
# Assay in all cases: relative viability (nuclei count vs DMSO), 5 days (fraction); higher = more cells survive
# NCI-H1944 = system: NCI-H1944
# How it was run: (§1)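 A single step with final 0.05% Triton X-100, 1% formaldehyde and 1 ug/ml Hoechst fixed the cells and stained nuclei 5 days after treatment. Lung cancer cell lines in 1536-well plates had been treated by pin tool the day after seeding with one drug alone or a fixed anchor-drug dose plus five library-drug doses (not always all listed) in √10 steps, and nuclei were counted on 4× images. Relative viability is the ratio of nuclei in treated wells to nuclei in vehicle wells, taken as the median of duplicate plates.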
# HCC-366 = system: HCC-366
# How it was run: as §1
# COR-L23 = system: COR-L23
# How it was run: as §1
# NCI-H2023 = system: NCI-H2023
# How it was run: as §1
# NCI-H2405 = system: NCI-H2405
# How it was run: as §1
# NCI-H23 = system: NCI-H23
# How it was run: as §1
# NCI-H1993 = system: NCI-H1993
# How it was run: as §1
# NCI-H358 = system: NCI-H358
# How it was run: as §1
# LC-2-ad = system: LC-2-ad
# How it was run: as §1
# ABC-1 = system: ABC-1
# How it was run: as §1
# NCI-H838 = system: NCI-H838
# How it was run: as §1
smiles,measurement,setting,value
O=c1cc(N2CCOCC2)oc2c(-c3cccc4c3sc3ccccc34)cccc12 + Cc1cc(Nc2cc(N3CCN(C)CC3)nc(Sc3ccc(NC(=O)C4CC4)cc3)n2)n[nH]1 [Tozasertib] (partner 0.1 µM),relative viability,NCI-H1944; first compound 0.01 µM,0.246
same,relative viability,NCI-H1944; first compound 0.03162 µM,0.249
same,relative viability,NCI-H1944; first compound 0.1 µM,0.241
same,relative viability,NCI-H1944; first compound 0.3162 µM,0.245
same,relative viability,NCI-H1944; first compound 1 µM,0.244
same,relative viability,HCC-366; first compound 0.01 µM,0.123
same,relative viability,HCC-366; first compound 0.03162 µM,0.125
same,relative viability,HCC-366; first compound 0.1 µM,0.102
same,relative viability,HCC-366; first compound 0.3162 µM,0.211
same,relative viability,HCC-366; first compound 1 µM,0.121
same,relative viability,COR-L23; first compound 0.01 µM,0.213
same,relative viability,COR-L23; first compound 0.03162 µM,0.231
same,relative viability,COR-L23; first compound 0.1 µM,0.18
same,relative viability,COR-L23; first compound 0.3162 µM,0.234
same,relative viability,COR-L23; first compound 1 µM,0.225
same,relative viability,NCI-H2023; first compound 0.01 µM,0.353
same,relative viability,NCI-H2023; first compound 0.03162 µM,0.402
same,relative viability,NCI-H2023; first compound 0.1 µM,0.438
same,relative viability,NCI-H2023; first compound 0.3162 µM,0.359
same,relative viability,NCI-H2023; first compound 1 µM,0.373
same,relative viability,NCI-H2405; first compound 0.01 µM,0.727
same,relative viability,NCI-H2405; first compound 0.03162 µM,0.753
same,relative viability,NCI-H2405; first compound 0.1 µM,0.821
same,relative viability,NCI-H2405; first compound 0.3162 µM,0.734
same,relative viability,NCI-H2405; first compound 1 µM,0.75
same,relative viability,NCI-H23; first compound 0.01 µM,0.363
same,relative viability,NCI-H23; first compound 0.03162 µM,0.391
same,relative viability,NCI-H23; first compound 0.3162 µM,0.31
same,relative viability,NCI-H23; first compound 1 µM,0.351
same,relative viability,NCI-H1993; first compound 0.01 µM,0.554
same,relative viability,NCI-H1993; first compound 0.03162 µM,0.581
same,relative viability,NCI-H1993; first compound 0.1 µM,0.569
same,relative viability,NCI-H1993; first compound 0.3162 µM,0.566
same,relative viability,NCI-H1993; first compound 1 µM,0.62
same,relative viability,NCI-H358; first compound 0.01 µM,0.113
same,relative viability,NCI-H358; first compound 0.03162 µM,0.102
same,relative viability,NCI-H358; first compound 0.1 µM,0.115
same,relative viability,NCI-H358; first compound 0.3162 µM,0.0946
same,relative viability,NCI-H358; first compound 1 µM,0.101
same,relative viability,LC-2-ad; first compound 0.01 µM,0.486
same,relative viability,LC-2-ad; first compound 0.03162 µM,0.46
same,relative viability,LC-2-ad; first compound 0.1 µM,0.478
same,relative viability,LC-2-ad; first compound 0.3162 µM,0.443
same,relative viability,LC-2-ad; first compound 1 µM,0.445
same,relative viability,ABC-1; first compound 0.01 µM,0.186
same,relative viability,ABC-1; first compound 0.03162 µM,0.178
same,relative viability,ABC-1; first compound 0.1 µM,0.222
same,relative viability,ABC-1; first compound 0.3162 µM,0.21
same,relative viability,ABC-1; first compound 1 µM,0.164
same,relative viability,NCI-H838; first compound 0.01 µM,0.246
same,relative viability,NCI-H838; first compound 0.03162 µM,0.273
same,relative viability,NCI-H838; first compound 0.1 µM,0.27
same,relative viability,NCI-H838; first compound 0.3162 µM,0.298
same,relative viability,NCI-H838; first compound 1 µM,0.237
